Experimental data from ChEMBL document CHEMBL5150032, “Sunitinib-based Proteolysis Targeting Chimeras (PROTACs) reduced the protein levels of FLT-3 and c-KIT in leukemia cell lines” (Bioorg Med Chem Lett, 2022).
The source made the active and inactive calls. The rule behind the calls is not given here. Residues, ends and D or L forms follow the SMILES beside them. *: point of attachment. Cbz = O=C(OCc1ccccc1)*

Columns and labels:
[1] = tested on: HL-60; test: Antiproliferative activity against human HL-60 cells assessed as reduction in cell viability at 20 uM incubated for 24 hrs by CCK-8 assay; format: functional, cell-based
[2] = tested on: K562; test: Antiproliferative activity against human K562 cells assessed as reduction in cell viability at 20 uM incubated for 24 hrs by CCK-8 assay; format: functional, cell-based
[3] = tested on: A498; test: Antiproliferative activity against human A498 cells assessed as reduction in cell viability at 20 uM incubated for 24 hrs by CCK-8 assay; format: functional, cell-based
[4] = tested on: HL-60; test: Antiproliferative activity against human HL-60 cells assessed as inhibition of cell growth incubated for 48 hrs by CCK-8 assay; format: functional, cell-based; details: HL-60, 48 h
[5] = tested on: K562; test: Antiproliferative activity against human K562 cells assessed as inhibition of cell growth incubated for 48 hrs by CCK-8 assay; format: functional, cell-based; details: K562, 48 h
[6] = tested on: A498; test: Antiproliferative activity against human A498 cells assessed as inhibition of cell growth incubated for 48 hrs by CCK-8 assay; format: functional, cell-based; details: A498, 48 h
[7] = Cytotoxicity against human NCM460 cells assessed as inhibition of cell growth; format: toxicity, cell-based
[8] = molecular target: T1, von Hippel-Lindau disease tumor suppressor/Receptor-type tyrosine-protein kinase FLT3 (Homo sapiens) (UniProt P36888+P40337); test: PROTAC activity at VHL/FLT-3 in human HL-60 cells assessed as reduction in FLT-3 protein level at 10 to 20 uM incubated for 48 hrs by Western blot analysis; format: cell-based; details: dose 10-20 µM
T1 sequence (P36888 27-993 limits assumed): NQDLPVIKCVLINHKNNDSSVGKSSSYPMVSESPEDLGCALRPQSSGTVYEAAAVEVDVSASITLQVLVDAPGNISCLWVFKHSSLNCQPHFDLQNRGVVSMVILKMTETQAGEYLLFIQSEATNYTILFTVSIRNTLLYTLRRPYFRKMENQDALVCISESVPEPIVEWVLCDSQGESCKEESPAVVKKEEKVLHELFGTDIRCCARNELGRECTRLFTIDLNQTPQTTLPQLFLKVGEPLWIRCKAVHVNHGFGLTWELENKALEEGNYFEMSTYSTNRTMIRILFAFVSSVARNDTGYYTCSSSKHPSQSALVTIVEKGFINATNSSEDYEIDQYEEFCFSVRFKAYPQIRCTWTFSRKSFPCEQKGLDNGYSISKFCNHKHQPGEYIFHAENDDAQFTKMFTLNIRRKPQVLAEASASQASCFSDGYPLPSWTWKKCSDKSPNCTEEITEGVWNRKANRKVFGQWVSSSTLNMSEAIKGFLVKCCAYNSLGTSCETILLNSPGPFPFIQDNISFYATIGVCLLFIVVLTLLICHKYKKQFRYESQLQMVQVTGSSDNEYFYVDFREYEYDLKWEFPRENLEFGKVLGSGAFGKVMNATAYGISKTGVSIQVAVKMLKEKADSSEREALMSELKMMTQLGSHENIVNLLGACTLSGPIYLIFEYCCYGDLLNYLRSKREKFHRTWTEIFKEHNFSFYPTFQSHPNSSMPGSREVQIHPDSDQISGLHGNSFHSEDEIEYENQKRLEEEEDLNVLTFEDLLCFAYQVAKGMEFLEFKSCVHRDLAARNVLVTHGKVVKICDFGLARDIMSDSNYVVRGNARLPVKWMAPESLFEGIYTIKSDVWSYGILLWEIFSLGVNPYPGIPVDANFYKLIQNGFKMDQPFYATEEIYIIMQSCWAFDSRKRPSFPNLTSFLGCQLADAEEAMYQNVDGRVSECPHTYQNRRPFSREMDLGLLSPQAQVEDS
T1 sequence (P40337 whole entry partner): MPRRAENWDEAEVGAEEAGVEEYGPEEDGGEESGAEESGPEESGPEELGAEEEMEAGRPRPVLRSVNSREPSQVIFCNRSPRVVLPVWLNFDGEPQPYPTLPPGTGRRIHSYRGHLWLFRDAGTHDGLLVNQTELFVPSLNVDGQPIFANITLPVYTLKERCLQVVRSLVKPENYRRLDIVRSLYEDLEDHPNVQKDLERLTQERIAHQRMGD

[9] = molecular target: T1, von Hippel-Lindau disease tumor suppressor/Receptor-type tyrosine-protein kinase FLT3 (Homo sapiens); test: PROTAC activity at VHL/FLT-3 in human HL-60 cells assessed as reduction in FLT-3 protein level at 10 uM incubated for 12 hrs by Western blot analysis; format: cell-based
[10] = molecular target: T1, von Hippel-Lindau disease tumor suppressor/Receptor-type tyrosine-protein kinase FLT3 (Homo sapiens); test: PROTAC activity at VHL/FLT-3 in human HL-60 cells assessed as reduction in FLT-3 protein level at 10 uM by Western blot analysis; format: cell-based; details: time 4-48 hrs, TDE = time-dependent effect
[11] = molecular target: T2, von Hippel-Lindau disease tumor suppressor/Mast/stem cell growth factor receptor Kit (Homo sapiens) (UniProt P10721+P40337); test: PROTAC activity at VHL/c-KIT in human HL-60 cells assessed as reduction in c-KIT protein level at >10 uM measured at 24 to 48 hrs by Western blot analysis; format: cell-based; details: time 24-48 hrs
T2 sequence (P10721 whole entry, looked up): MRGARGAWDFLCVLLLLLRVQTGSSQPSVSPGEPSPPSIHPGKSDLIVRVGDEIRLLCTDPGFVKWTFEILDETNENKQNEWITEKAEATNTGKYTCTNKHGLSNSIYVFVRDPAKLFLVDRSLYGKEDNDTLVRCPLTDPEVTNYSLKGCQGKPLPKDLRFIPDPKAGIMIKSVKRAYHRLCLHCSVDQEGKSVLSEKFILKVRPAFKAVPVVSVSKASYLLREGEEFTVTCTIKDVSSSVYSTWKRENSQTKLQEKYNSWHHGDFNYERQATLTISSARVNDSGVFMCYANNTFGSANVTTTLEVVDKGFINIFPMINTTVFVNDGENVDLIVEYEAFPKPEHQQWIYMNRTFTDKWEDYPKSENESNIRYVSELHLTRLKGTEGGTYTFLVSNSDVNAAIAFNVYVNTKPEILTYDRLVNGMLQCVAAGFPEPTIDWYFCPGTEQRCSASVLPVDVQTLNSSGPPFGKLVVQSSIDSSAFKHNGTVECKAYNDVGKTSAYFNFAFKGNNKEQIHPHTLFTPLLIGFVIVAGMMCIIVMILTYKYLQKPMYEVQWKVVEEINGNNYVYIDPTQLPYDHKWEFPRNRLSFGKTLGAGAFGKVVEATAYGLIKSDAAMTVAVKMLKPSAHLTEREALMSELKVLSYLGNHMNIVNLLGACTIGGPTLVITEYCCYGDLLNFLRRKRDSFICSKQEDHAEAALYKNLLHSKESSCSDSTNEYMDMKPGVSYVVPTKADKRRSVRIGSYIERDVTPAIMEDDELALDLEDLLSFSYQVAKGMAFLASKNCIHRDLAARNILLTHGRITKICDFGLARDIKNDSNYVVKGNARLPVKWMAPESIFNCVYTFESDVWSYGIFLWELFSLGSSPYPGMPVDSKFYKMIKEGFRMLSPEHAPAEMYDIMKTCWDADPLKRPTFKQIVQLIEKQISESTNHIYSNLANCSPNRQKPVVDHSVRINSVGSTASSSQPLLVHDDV
T2 sequence (P40337 whole entry, looked up): as the sequence (P40337 whole entry partner) above

[12] = molecular target: T1, von Hippel-Lindau disease tumor suppressor/Receptor-type tyrosine-protein kinase FLT3 (Homo sapiens); test: PROTAC activity at VHL/FLT-3 in human K562 cells assessed as reduction in FLT-3 protein level at 20 uM incubated for 48 hrs by Western blot analysis; format: cell-based
[13] = molecular target: T1, von Hippel-Lindau disease tumor suppressor/Receptor-type tyrosine-protein kinase FLT3 (Homo sapiens); test: PROTAC activity at VHL/FLT-3 in human HL-60 cells assessed as reduction in FLT-3 protein level at 20 uM incubated for 24 hrs by Western blot analysis; format: cell-based
[14] = molecular target: T1, von Hippel-Lindau disease tumor suppressor/Receptor-type tyrosine-protein kinase FLT3 (Homo sapiens); test: PROTAC activity at VHL/FLT-3 in human HL-60 cells assessed as reduction in FLT-3 protein level at 20 uM preincubated with MG-132 for 1 hrs followed by compound addition and measured after for 48 hrs by Western blot analysis; format: cell-based
[15] = molecular target: T2, von Hippel-Lindau disease tumor suppressor/Mast/stem cell growth factor receptor Kit (Homo sapiens); test: PROTAC activity at VHL/c-KIT in human HL-60 cells assessed as reduction in c-KIT protein level at 20 uM preincubated with VHL032 for 1 hrs followed by compound addition and measured after for 48 hrs by Western blot analysis; format: cell-based
[16] = molecular target: T1, von Hippel-Lindau disease tumor suppressor/Receptor-type tyrosine-protein kinase FLT3 (Homo sapiens); test: PROTAC activity at VHL/FLT-3 in human HL-60 cells assessed as reduction in FLT-3 protein level at 1 uM incubated for 1 hrs by Western blot analysis; format: cell-based

SMILES | Activity [1] | Activity [2] | Activity [3] | IC50 [4] | IC50 [5] | IC50 [6] | IC50 [7] | Activity [8] | Activity [9] | Activity [10] | Activity [11] | Activity [12] | Activity [13] | Activity [14] | Activity [15] | Activity [16]
Cc1ncsc1-c1ccc(CNC(=O)[C@@H]2C[C@@H](O)CN2C(=O)[C@@H](NC(=O)COCCOCCNC(=O)c2c(C)[nH]c(/C=C3\C(=O)Nc4ccc(F)cc43)c2C)C(C)(C)C)cc1 | Active | Active | Active | 2.9 µM | 11.6 µM | 13.1 µM | > 100 µM | Active | Active | Tde | Active | Active | Active | Active | Active | –
CCN(CCNC(=O)c1c(C)[nH]c(/C=C2\C(=O)Nc3ccc(F)cc32)c1C)CC(=O)N[C@H](C(=O)N1C[C@H](O)C[C@H]1C(=O)NCc1ccc(-c2scnc2C)cc1)C(C)(C)C | Active | Active | Active | 36.5 µM | 8.4 µM | 26.5 µM | > 100 µM | – | – | – | – | Active | – | – | – | –
CC(C)C[C@@H](C=O)NC(=O)[C@H](CC(C)C)NC(=O)[C@H](CC(C)C)NC(=O)OCc1ccccc1 (Cbz-Leu-Leu-Leu-aldehyde) | – | – | – | – | – | – | – | – | – | – | – | – | – | – | – | Active
CCN(CC)CCNC(=O)c1c(C)[nH]c(/C=C2\C(=O)Nc3ccc(F)cc32)c1C [SUNITINIB] | – | – | – | 8.7 µM | 5.8 µM | 1.2 µM | – | – | – | – | – | – | – | – | – | –
Cc1ncsc1-c1ccc(CNC(=O)[C@@H]2C[C@@H](O)CN2C(=O)[C@@H](NC(=O)COCCOCCOCCNC(=O)c2c(C)[nH]c(/C=C3\C(=O)Nc4ccc(F)cc43)c2C)C(C)(C)C)cc1 | – | – | – | 12.7 µM | 15.2 µM | 18.1 µM | – | – | – | – | – | – | – | – | – | –
